US10882863B2, “Compounds for reducing c-Myc in c-Myc overexpressing cancers background” (The Trustees of Columbia University in the City of New York, priority 2016, dated 2021)
Read-outs that look alike come from different tables or passages of the source.

Tests used:
phosphorylation of 4EBP1 [1] = assay: Western blot of phosphorylated 4EBP1 in LY10 cells; format: cell-based; details: LY-10, 25 uM, 6 hours, vs vehicle
Method: (§1) Western blot was performed on whole protein extract from cultured cells under specified treatment conditions, most often for 24 hours. Western blotting was performed according to standard protocols, using the chemiluminescence detection system from Thermo Scientific. The primary antibodies were purchased from Cell Signaling Technology unless specified otherwise, and were against these proteins: 4EBP1, phos-4EBP1, S6K, phos-S6K, Bcl2, Bcl-xL, PARP, c-myc, B-catenin, P-4EBP1 (S65), P-4EBP1 (T70). Signals of beta-actin and GAPDH were used as loading control. Goat anti-rabbit or anti-mouse secondary antibodies were purchased from Santa Cruz Biotechnology.
(§2) The lymphoma cell lines LY10 and LY7 were treated with PF4800567 (PF), Cal-101 (Cal), TGR-1202 (TG) and CUX-03166 as single agents for 6 hours all at 25 uM concentrations. Protein extracts were processed for Western blot using antibodies against c-Myc, B-Catenin, phosphorylated 4EBP1, total 4EBP1, and beta actin.

c-Myc [2] = assay: Western blot of c-Myc level in LY10 cells; format: cell-based; details: LY-10, 25 uM, 6 hours, vs vehicle
Method: as §1, §2

c-Myc [3] = assay: Western blot of c-Myc level in LY7 (GCB-DLBCL) cells; format: cell-based; details: for reduction in c-Myc (Western blot): LY-7, 25 uM, 6 hours
Method: as §1, §2
(§3) FIG. 6. […] Protein extracts were processed for Western blot using antibodies against c-Myc, B-Catenin, phosphorylated 4EBP1, total 4EBP1, P-p70S6K, P70S6K, PARP and beta actin.

LY10 cells = assay: Cell Titer Glo viability, lymphoma cell line LY10; format: cell-based; details: for viability at 50 µM: LY10, 50 uM
Method: (§4) Cytotoxicity was performed on cultured cells using Cell Titer Glo, as previously described. Experiments were carried out in 96-well plates, with each treatment in triplicate. Samples were taken at typically 24 hours, 48 hours, and/or 72 hours after treatment, as indicated. Cytotoxicity was expressed by the decreasing percentage of live cells in each treatment relative to the untreated control from the same experiment, as a function of time. IC50 (half the maximal inhibitory concentration) for each cell line was calculated using the CalcuSyn Version 2.0 software (Biosoft).
The lymphoma cell line LY10 was treated with CUX-03166 (′166 compound) for 24 hours, 48 hours and 72 hours. Cells were collected from the treatment group and the vehicle treated negative control. Viable cells were quantitated by the Cell-Titer Glo assay from Promega. Viable cells in the treated cells were expressed as a percentage of the negative control. […] At a concentration of 50 uM, viability of cells drop to 0% just at 24 hours of treatment. Cells were also treated with Cal-101 and TGR-1202 and viability was determined at 24 hr. For lower concentrations of 5 μm and 15 μM, viability dropped to ˜80% for both treatments. However, as concentrations increased up to 50 μM, viability remained at ˜80% for Cal-101 and modestly dropped to ˜65% for TGR-1202, as shown in FIG. 1.

LY7 cells = assay: Cell Titer Glo viability, lymphoma cell line LY7 (OCI-LY7, GCB-DLBCL); format: cell-based; details: for viability at 15 µM: LY7, 15 uM; for viability at 25 µM: LY7, 25 uM
Method: as §4
The lymphoma cell line LY7 was treated with CUX-03166 for 24 hr (diamond), 48 hours (square) and 72 hours (triangle). Viability was determined similar to that for Example 2. […] At 25 uM concentrations, viability dropped to 0% at 24 hours.
(§5) CUX-0404A reduces viability of OCI-LY7 cells (germinal center diffuse large B cell lymphoma, GCB-DLBCL), see FIG. 4. The lymphoma cell line LY7 was treated with CUX-0404A for 24 hours (dark circle), 48 hours (light circle) or CUX0404B for 24 hours (dark square) or 48 hours (light square). Viability was determined similar to that for FIG. 1. At 15 uM concentrations, viability of cells dropped to 60% at 24 hours, ˜42% at 48 hours, At 25 uM concentrations, viability dropped to 0% at 24 hours. FIG. 5. CUX-0404A reduces viability of Z-138 (mantle cel lymphoma, MCL) cells more potently than TG-1202. […] Viability was determined similar to that for FIG. 1. At 25 uM concentrations, viability of cells dropped to 20% for the CUX-0404A treatment as compared to 60% for TGR-1202

phosphorylation of 4EBP1 [4] = assay: Western blot of phosphorylated 4EBP1 in GCB-DLBCL lymphoma cell line; format: cell-based; details: 12 hours, 15 and 20 uM
Method: as §1, §3

CK1epsilon = biological target: T1, CK1epsilon (Homo sapiens, UniProt P49674); assay: CK1ε kinase activity assay (radioisotope filtration binding assay); format: biochemical; details: 10 μM ATP, 3-fold serial dilution from 100 μM
T1 construct: purchased Reaction Biology
T1 sequence (P49674 whole entry): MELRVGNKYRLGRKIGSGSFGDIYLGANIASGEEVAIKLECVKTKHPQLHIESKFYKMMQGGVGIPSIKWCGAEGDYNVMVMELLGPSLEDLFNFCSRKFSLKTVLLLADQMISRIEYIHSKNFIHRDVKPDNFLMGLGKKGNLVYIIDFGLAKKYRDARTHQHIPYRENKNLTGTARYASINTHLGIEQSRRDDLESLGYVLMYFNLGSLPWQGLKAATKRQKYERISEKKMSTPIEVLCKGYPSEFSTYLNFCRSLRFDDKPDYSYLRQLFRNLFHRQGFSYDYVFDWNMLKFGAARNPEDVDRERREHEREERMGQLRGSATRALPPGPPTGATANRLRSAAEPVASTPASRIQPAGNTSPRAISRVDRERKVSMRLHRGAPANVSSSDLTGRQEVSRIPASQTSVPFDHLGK
Method: The CK-1 assay was conducted according to the techniques disclosed in Anastassiadis et al, Nat Biotechnol; 29(11): 1039-1045. Briefly, specific kinase/substrate pairs along with required cofactors were prepared in reaction buffer; 20 mM Hepes pH 7.5, 10 mM MgCl2, 1 mM EGTA, 0.02% Brij35, 0.02 mg/ml BSA, 0.1 mM Na3VO4, 2 mM DTT, 1% DMSO (for specific details of individual kinase reaction components see Supplementary Table 2, Anastassiadis et al. 2011). Compounds were delivered into the reaction, followed ˜20 minutes later by addition of a mixture of ATP (Sigma, St. Louis Mo.) and 33P ATP (Perkin Elmer, Waltham Mass.) to a final concentration of 10 μM. Reactions were carried out at room temperature for 120 min, followed by spotting of the reactions onto P81 ion exchange filter paper (Whatman Inc., Piscataway, N.J.). Unbound phosphate was removed by extensive washing of filters in 0.75% phosphoric acid. […] IC50 values and curve fits were obtained using Prism (GraphPad Software). • Substrate: Peptide substrate, [KRRRAL[pS]VASLPGL], 20 μM ATP 10 μM • Reaction: Substrate+[γ-33P]-ATP 33P-Substrate+ADP • Assay: radioisotope filtration binding assay (Reaction Biology). […]

[5] = system: Z-138 (mantle cel lymphoma, MCL) cells; assay: Cell Titer Glo viability, Z-138 mantle cell lymphoma cells; format: cell-based; details: Homo sapiens; Z-138, 25 uM, 24 hours
Method: as §4, §5

[6] = 24 hours, read-out: viability (viable cells as percentage of negative control)

SMILES: Nc1ncnc2c1c(COc1cccc(Cl)c1)nn2C1CCOCC1 [PF4800, reference compound]
- inhibition of phosphorylation of 4EBP1 (Western blot) (phosphorylation of 4EBP1 [1]): moderate inhibition
- inhibition of the c-Myc level (Western blot) (c-Myc [2]): moderate inhibition
- reduction in c-Myc (Western blot) (c-Myc [3]): modest reduction

SMILES: CC[C@H](Nc1ncnc2[nH]cnc12)c1nc2cccc(F)c2c(=O)n1-c1ccccc1 [Cal-101, reference compound]
- viability at 50 µM (LY10 cells; [6]): ~80%

SMILES: CC[C@@H](c1nc2cccc(F)c2c(=O)n1-c1ccccc1)n1nc(-c2ccc(OC(C)C)c(F)c2)c2c(N)ncnc21 [CUX-03166]
- viability at 15 µM (LY7 cells; 24 hours): 40%
- viability at 15 µM (LY7 cells; 48 hours): 10%
- viability at 15 µM (LY7 cells; 72 hours): ~0%
- viability at 25 µM (LY7 cells; 24 hours): 0%
- inhibition of the c-Myc level (Western blot) (c-Myc [2]): significantly greater reduction
- viability at 25 µM (LY10 cells; LY10, 25 uM, 48 hours, read-out: viability (viable cells as percentage of negative control)): 0%
- viability at 50 µM (LY10 cells; [6]): 0%
- increase in potency in inhibiting c-Myc compared to TGR-1202 (c-Myc [3]; LY7 cells, Western blot): near-fiftyfold increase in potency
- reduction in c-Myc (Western blot) (c-Myc [3]): undetectable level

SMILES: CC(C)Oc1ccc(-c2nn([C@@H](C)c3nc4ncc(Br)c(N(C)C)c4c(=O)n3-c3ccccc3)c3ncnc(N)c23)cc1F [CUX-0404A]
- inhibition of phosphorylation of 4EBP1 (Western blot) (phosphorylation of 4EBP1 [4]): Potent Inhibition
- IC50 (CK1epsilon): 3.21 µM
- viability at 25 µM [5]: 20%
- viability at 15 µM (LY7 cells; 24 hours): 60%
- viability at 15 µM (LY7 cells; 48 hours): ~42%
- viability at 25 µM (LY7 cells; 24 hours): 0%
- viability at 20 µM (LY10 cells; LY10 (as printed in summary), 20 μM, 48 hours): 0%
- viability at 25 µM (LY10 cells; LY10 (as printed in summary), 25 μM, 24 hours, read-out: viability): 0%
- c-myc level (Western blot) (c-Myc [3]; GCB-DLBCL lymphoma cell line, 12 hours, 20 uM): undetectable
- reduction of c-Myc level (Western blot) (c-Myc [3]; GCB-DLBCL lymphoma cell line, 12 hours, 15 and 20 uM, vs vehicle): significantly greater reduction
